Values joined by “and” are separate entries in the source; they are usually repeats but may differ in a detail not shown here. Equal values may be shown once. Read-outs that look alike come from different tables or passages of the source. Ends that are not written are not given here.
Experiments:
in vitro [1] = conditions: mouse, 17Cl-1 cells, cell viability, Figure S7E
in vitro [2] = conditions: Vero E6 cells, cell viability, Figure S7F
in vitro [3] = conditions: human, Calu-3 cells, cell viability, Figure S7G
[4] = biological target: hHGS 1-390-6 × HIS protein (Homo sapiens, UniProt O14964); experiment: SPR binding of immobilized M peptides to HGS; conditions: without RTB; read-out: KD, binding affinity of peptide with HGS (SPR)
Sequence of hHGS 1-390-6 × HIS protein (O14964 1-390): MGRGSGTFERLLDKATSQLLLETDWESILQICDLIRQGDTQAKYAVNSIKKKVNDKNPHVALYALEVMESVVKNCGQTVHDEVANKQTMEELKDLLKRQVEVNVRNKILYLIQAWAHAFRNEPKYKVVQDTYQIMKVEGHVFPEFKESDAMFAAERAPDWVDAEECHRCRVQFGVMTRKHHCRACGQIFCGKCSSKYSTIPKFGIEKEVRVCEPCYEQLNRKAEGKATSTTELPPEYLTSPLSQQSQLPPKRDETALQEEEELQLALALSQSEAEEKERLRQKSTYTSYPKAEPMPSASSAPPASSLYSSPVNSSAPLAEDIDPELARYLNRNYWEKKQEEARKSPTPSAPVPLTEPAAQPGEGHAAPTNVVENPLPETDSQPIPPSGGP

GRKKRRQRRRPPQESELVIGAVILR [M146]
viability at 24 h (in vitro [1]; peptide concentration 1000): 99.7% | viability at 24 h (in vitro [1]; peptide concentration 4000): 103% | viability at 24 h (in vitro [1]; peptide concentration 8000): 95.8% | viability at 24 h (in vitro [1]; peptide concentration 10000): 107% | viability at 24 h (in vitro [1]; peptide concentration 20000): 92.7% | viability at 24 h (in vitro [1]; peptide concentration 40000): 91% | viability at 24 h (in vitro [1]; peptide concentration 80000): 71.4% | viability at 24 h (in vitro [1]; peptide concentration 100000): 84.5% | viability at 24 h (in vitro [1]; peptide concentration 200000): 84% | viability at 24 h (in vitro [2]; peptide concentration 2000): 98.5% | viability at 24 h (in vitro [2]; peptide concentration 10000): 97.7% | viability at 24 h (in vitro [2]; peptide concentration 20000): 94.2% | viability at 24 h (in vitro [2]; peptide concentration 40000): 93.1% | viability at 24 h (in vitro [2]; peptide concentration 80000): 91.9% | viability at 24 h (in vitro [2]; peptide concentration 120000): 88.8% | viability at 24 h (in vitro [2]; peptide concentration 160000): 80.8% | viability at 24 h (in vitro [2]; peptide concentration 200000): 70.8% | viability at 24 h (in vitro [2]; peptide concentration 400000): 20% | viability at 24 h (in vitro [2]; peptide concentration 800000): 12% | viability at 24 h (in vitro [2]; peptide concentration 1200000): 11.4% | viability at 24 h (in vitro [2]; peptide concentration 1600000): 14.5% | cytotoxicity (CCK-8) (Calu-3 cells; Calu-3, up to 10^4 nM): no significant cytotoxicity | cell viability, Figure S7G (Calu-3 cells; peptide concentration 2000): 95.941 and 95.203 | cell viability, Figure S7G (Calu-3 cells; peptide concentration 10000): 97.048 and 96.679 | cell viability, Figure S7G (Calu-3 cells; peptide concentration 20000): 96.679 | cell viability, Figure S7G (Calu-3 cells; peptide concentration 40000): 96.31 and 87.4539 | cell viability, Figure S7G (Calu-3 cells; peptide concentration 80000): 94.0959 and 97.048 | cell viability, Figure S7G (Calu-3 cells; peptide concentration 120000): 77.1218 and 97.786 and 96.31 | cell viability, Figure S7G (Calu-3 cells; peptide concentration 160000): 66.0517 and 74.9077 | cell viability, Figure S7G (Calu-3 cells; peptide concentration 200000): 81.9188 and 68.2657 | cell viability, Figure S7G (Calu-3 cells; peptide concentration 400000): 25.2399 and 16.7897 | cell viability, Figure S7G (Calu-3 cells; peptide concentration 800000): 14.4649 | cell viability, Figure S7G (Calu-3 cells; peptide concentration 1200000): 11.5867 and 10.5535 | cell viability, Figure S7G (Calu-3 cells; peptide concentration 1600000): 13.7638 and 14.6125 | viability at 24 h (in vitro [3]; peptide concentration 2000): 83.8% | viability at 24 h (in vitro [3]; peptide concentration 10000): 95.2% | viability at 24 h (in vitro [3]; peptide concentration 20000): 94.8% | viability at 24 h (in vitro [3]; peptide concentration 40000): 93.7% | viability at 24 h (in vitro [3]; peptide concentration 80000): 92.6% | viability at 24 h (in vitro [3]; peptide concentration 160000): 85.6% | viability at 24 h (in vitro [3]; peptide concentration 200000): 83% | viability at 24 h (in vitro [3]; peptide concentration 400000): 24.4% | viability at 24 h (in vitro [3]; peptide concentration 800000): 13% | viability at 24 h (in vitro [3]; peptide concentration 1200000): 11% | viability at 24 h (in vitro [3]; peptide concentration 1600000): 11.7% | cytotoxicity (CCK-8) (Vero E6 cells; Vero E6, up to 10^4 nM): no significant cytotoxicity | cell viability, Figure S7F (Vero E6 cells; peptide concentration 2000): 100.769 and 98.8462 | cell viability, Figure S7F (Vero E6 cells; peptide concentration 10000): 100.769 and 99.2308 | cell viability, Figure S7F (Vero E6 cells; peptide concentration 20000): 100 and 96.5385 | cell viability, Figure S7F (Vero E6 cells; peptide concentration 40000): 96.9231 and 96.1538 | cell viability, Figure S7F (Vero E6 cells; peptide concentration 80000): 86.9231 | cell viability, Figure S7F (Vero E6 cells; peptide concentration 120000): 92.3077 | cell viability, Figure S7F (Vero E6 cells; peptide concentration 160000): 75.7692 and 76.9231 | cell viability, Figure S7F (Vero E6 cells; peptide concentration 200000): 78.4615 and 78.8462 | cell viability, Figure S7F (Vero E6 cells; peptide concentration 400000): 21.7308 and 21.1538 | cell viability, Figure S7F (Vero E6 cells; peptide concentration 800000): 13.7308 and 14.2308 | cell viability, Figure S7F (Vero E6 cells; peptide concentration 1200000): 13.4615 and 14.1154 | cell viability, Figure S7F (Vero E6 cells; peptide concentration 1600000): 13.0385 and 11.8077 | cytotoxicity (CCK-8) (17Cl-1 cells; 17Cl-1, up to 10^4 nM): no significant cytotoxicity | cell viability, Figure S7E (17Cl-1 cells; peptide concentration 1000): 99.2599 and 92.2943 | cell viability, Figure S7E (17Cl-1 cells; peptide concentration 4000): 104.049 and 106.226 | cell viability, Figure S7E (17Cl-1 cells; peptide concentration 8000): 108.838 | cell viability, Figure S7E (17Cl-1 cells; peptide concentration 10000): 97.5185 and 100.566 | cell viability, Figure S7E (17Cl-1 cells; peptide concentration 20000): 112.32 and 104.049 | cell viability, Figure S7E (17Cl-1 cells; peptide concentration 40000): 96.2125 and 97.0832 | cell viability, Figure S7E (17Cl-1 cells; peptide concentration 60000): 82.2812 and 103.613 and 98.3892 | cell viability, Figure S7E (17Cl-1 cells; peptide concentration 80000): 90.5529 | cell viability, Figure S7E (17Cl-1 cells; peptide concentration 100000): 97.0832 and 87.5054 | cell viability, Figure S7E (17Cl-1 cells; peptide concentration 200000): 89.6822 and 71.8328 | Kd [4]: 5.73 nM

Reference: PMC12948427 (The Journal of Clinical Investigation, 2025)
